Laboratory results as given in patent US20210000814A1, “RIMEGEPANT FOR CGRP RELATED DISORDERS” (Biohaven Pharmaceutical Holding Company Ltd., priority 2018, published 2021).

What was measured:
Type in all cases: in vivo, human
[1] = system: subjects with Acute Migraines; test: BHV3000-302 Phase 3 trial, acute treatment of migraine: efficacy; settings: Study 302; P<0.0001
Protocol: Clinical Trial—BHV3000-302: Phase 3: Double-Blind, Randomized, Placebo-Controlled, Safety and Efficacy Trial of BHV-3000 (Rimegepant) for the Acute Treatment of Migraine (ClinicalTrials.gov Identifier: NCT03237845) • A phase 3 clinical study was conducted with 1503 participants, as follows. […] Pain Freedom of rimegepant (75 mg tablet) compared with placebo in the acute treatment of migraine will be measured using the number of evaluable subjects that report no pain at 2 hours post-dose. [Time Frame: Two hours post dose] • Pain will be measured on a 4 point Likert scale (0=none, 1=mild, 2=moderate, 3=severe) • 2. Freedom from the most bothersome symptom (MBS) of rimegepant (75 mg tablet) compared with placebo will be measured using the number of evaluable subjects that report the absence of their MBS at 2 hours post-dose. […] The MBS (nausea, phonophobia or photophobia) will measured using a binary scale (0=absent, 1=present). […] [Time Frame: 2 hours-24 hours post-dose] • Sustained Pain Freedom as measured by a 4 point numeric rating scale (None, Mild, Moderate, Severe) • 2. […] [Time Frame: 2 hours post-dose] • Pain Relief as measured by a 4 point numeric rating scale (None, Mild, Moderate, Severe) • 5. […] [Time Frame: 2 hours-48 hours post-dose] • Sustained Pain Freedom as measured by a 4 point numeric rating scale (None, Mild, Moderate, Severe) • 8. […]

[2] = BHV3000-201 open label long-term safety study, interim analysis
Protocol: Clinical Trial—BHV3000-201: Open Label Safety Study in Acute Treatment of Migraine (ClinicalTrials.gov Identifier: NCT 03266588)
A phase 2/3 clinical study is conducted with about 2000 participants, as follows.
The purpose of this study is to evaluate safety and tolerability of BHV3000 (rimegepant).
Study Design • Study Type: Interventional (Clinical Trial) • Estimated Enrollment: 2000 participants • Intervention Model: Single Group Assignment • Masking: None (Open Label) • Primary Purpose: Treatment • Official Title: A Multicenter, Open Label Long-Term Safety Study of BHV3000 in the Acute Treatment of Migraine • Actual Study Start Date: Aug. 30, 2017 • Estimated Primary Completion Date: July 2019 • Estimated Study Completion Date: July 2019
1. To assess the safety and tolerability of rimegepant (BHV-3000) by measuring the frequency and severity of adverse events and discontinuations due to adverse events [Time Frame: 52 weeks]Number of subjects with treatment-emergent adverse events as assessed through laboratory tests, ECGs, physical exam findings (safety and tolerability)
1. ALT or AST >3×ULN with total bilirubin >2×ULN [Time Frame: 52 weeks]elevated liver function tests
2. hepatic related adverse events and hepatic related adverse events that lead to discontinuation [Time Frame: 52 weeks]adverse events related to liver
Patients were allowed to treat migraine attacks of all severities (mild to severe) up to once daily for a full year. The initial results for hepatic safety and tolerability of rimegepant 75 mg in study participants is based upon review of both adverse events and regularly scheduled liver function tests. Interim hepatic data were reviewed by an external and independent panel of liver experts. […] In the aggregate, it was noted that compared to migraine trials with drugs other than rimegepant, there was a very low incidence of overall elevations of liver function test abnormalities in rimegepant treated patients (1.0% incidence of serum ALT or AST >3x ULN). Subjects will continue to participate in Study 201 with additional data analyses to be submitted in the NDA and required 120-day safety updates.

patients with migraine = test: BHV3000-201: reduction in headache days (migraines) per month, treatment vs observation phase
From the text: Study Design • Study Type: Interventional (Clinical Trial) • Estimated Enrollment: 2000 participants • Intervention Model: Single Group Assignment • Masking: None (Open Label) • Primary Purpose: Treatment • Official Title: A Multicenter, Open Label Long-Term Safety Study of BHV3000 in the Acute Treatment of Migraine • Actual Study Start Date: Aug. 30, 2017 • Estimated Primary Completion Date: July 2019 • Estimated Study Completion Date: July 2019 In addition to the interim safety analysis, data from subjects was assessed to determine reductions in the number of headache days per month.

**Q.** For `N[C@@H]1c2cccnc2[C@H](OC(=O)N2CCC(n3c(=O)[nH]c4ncccc43)CC2)CC[C@H]1c1cccc(F)c1F` [Rimegepant, [(55,65,9R)-5-amino-6-(2,3-difluorophenyl)-6,7,8,9-tetrahydro-5H-cyclohepta[b]pyridin-9-yl]4-(2-oxo-3H-imidazo[4,5-b]pyridin-1-yl)piperidine-1-carboxylate], which “patients achieving normal function at 2 hours (functional disability) versus placebo” value [1] is on record?
**A.** greater proportion

**Q.** And the “safety and tolerability of long-term dosing” value ([2]; Study 201 interim analysis)?
**A.** consistent with the profile observed in phase 1- 3 studies

**Q.** What about the “incidence of serum ALT or AST >3x ULN” value ([2]; Study 201 interim, 75 mg up to once daily) of the same molecule?
**A.** 1.0%

**Q.** What about the liver safety signal ([2]; Study 201 interim, incl. near-daily dosing (>=15 doses/month)) of the same molecule?
**A.** no liver safety signal detected

**Q.** And the “liver cases assessed as probably related to study drug” value ([2]; Study 201 interim, independent liver panel)?
**A.** no liver cases

**Q.** What about the “subjects with > = 20.0% decrease, number” value (patients with migraine; Overall, n 1731) of the same molecule?
**A.** 683

**Q.** What about the “subjects with > = 25.0% decrease, number” value (patients with migraine; Overall, n 1731) of the same molecule?
**A.** 602

**Q.** And the “subjects with > = 30.0% decrease, number” value (patients with migraine; Overall, n 1731)?
**A.** 523

**Q.** And the “subjects with > = 35.0% decrease, number” value (patients with migraine; Overall, n 1731)?
**A.** 442

**Q.** And the “subjects with > = 40.0% decrease, number” value (patients with migraine; Overall, n 1731)?
**A.** 362

**Q.** And the “subjects with > = 45.0% decrease, number” value (patients with migraine; Overall, n 1731)?
**A.** 287

**Q.** What about the “subjects with > = 50.0% decrease, number” value (patients with migraine; Overall, n 1731) of the same molecule?
**A.** 226

**Q.** And the “onset of reductions in the mean number of headache days per month” value (patients with migraine; Study 201)?
**A.** as early as the first month
